# According to US20050124624A1, “4-(4-methylpiperazin-1-ylmethyl)-n-[4-methyl-3-(4-pyridin-3-yl)pyrimidin-2-yl-amino)phenyl]-benzamide for threating ang ii-mediated diseases” (priority 2002, published 2005):
# Key:
# mesenteric vessels = experiment: Histomorphometry of mesenteric vessels (media wall:lumen ratio, trichrome ECM) in angiotensin II-infused rats; type: in vivo, Sprague Dawley rats
# Method: (§1) Rats were randomized to receive minipumps filled vehicle (0.15 M NaCl, 1 mmol/l acetic acid) either with or without angiotensin II (58 ng/min), as previously described (Cao Z et col. Kidney Int 58:2437-2451, 2000).
# Histochemistry and immunohistochemistry: Histological studies of vascular architecture were performed in a subset of animals (n=8/group). Animals in this subgroup were anesthetized with pentobarbital sodium (Nembutal, Bomac Laboratories, Asquith, Australia) and vessels were perfused at arterial pressure with 10% neutral buffered formalin via an intra-aortic cannula. Tissues were then prepared as previously described (Cooper M E et col.; Diabetes 43:1221-1228,1994). In brief, mesenteric vessels were placed in ice cold phosphate buffer where fat, connective tissue and veins were removed by blunt dissection. The resultant vessel preparation was then embedded in paraffin. Sections were then either histochemically or immunohistochemically stained. […]
# Quantification of histopathology: The proportion of vessel wall occupied by the media was identified by immunolabelling for α-smooth muscle actinand the ratio of the wall:lumen quantified using of a video-imaging system (Video Pro 32, Leading Edge, Bedford Park, South Australia, Australia), connected to a light microscope (Zeiss, Oberkocken, Germany) with photographic attachment (Axiophot, Zeiss, Oberkocken, Germany). Using this device, the media (areas stained with the anti-actin antibody) and corresponding lumenal areas were determined in a median of 20 (range 10-35) vessels per animal and expressed as wall:lumen ratio, as previously described in other models of vascular hypertrophy (Kakinuma Yet col.; Kidney Int 42:46-55., 1992).
# Quantification of ECM was performed on trichrome-stained sections by calculating the proportion of area occupied by ECM using computer-assisted image analysis as previously described (Lehr H A, et col. J Histochem Cytochem 45:1559-1565, 1997). […]
# [1] = system: Transforming growth factor-β1 (TGF-β1); experiment: Quantitative real-time RT-PCR of mesenteric vessel TGF-β1 gene expression; type: in vivo, Sprague Dawley rats; conditions: mesenteric vessel mRNA, compared with untreated counterparts also subjected to angiotensin II-infusion
# Method: as §1
# (§2) RNA Extraction and cDNA synthesis Frozen mesenteric vascular tissue, stored at −80° C. was homogenized (Ultra-Turrax, Janke and Kunkel, Staufen, Germany) and total RNA was isolated by the acid guanidinium thiocyanate-phenol-chloroform extraction method (Chomczynski P, Sacchi N; Anal Biochem 162:156-159,1987). The purified RNA was dissolved in sterile water, quantified spectrophotometrically and its concentration adjusted to 1 μg/μl. […]
# (§3) Quantitative Real Time RT-PCR: Transforming growth factor-β1 (TGF-β1) and platelet-derived growth factor (PDGF) gene expression was quantified by real-time RT-PCR using sequence specific primers as previously reported by our group (Ahola H, et col.; American Journal of Pathology 155:907-913,1999). […] Both probes included a fluorescence reporter (6-carboxyfluorescein [FAM]) at the 5′-end and a fluorescent quencher (6-carboxytetramethylrhodamine [TAMRA]) at the 3′-end. For the relative quantification of the target gene and the endogenous reference 18S ribosomal RNA (18S), real-time quantitative RT-PCR was performed using an GeneAmp 5700 Sequence Detector (PE Biosystems, Foster City, Calif.) according to the manufacturer's instructions. […]
# [2] = system: platelet-derived growth factor (PDGF); experiment: Quantitative real-time RT-PCR of mesenteric vessel PDGF gene expression; type: in vivo, Sprague Dawley rats; conditions: mesenteric vessel mRNA, angiotensin II infused animals
# Method: as §1, §2, §3
# [3] = system: angiotensin II-infused rats; experiment: Angiotensin II infusion in rats: systolic blood pressure and mesenteric vessel weight; conditions: 60 mg/kg daily gavage, 12 days
# [4] = trichrome stained sections, 60 mg/kg daily
compound,measurement,setting,value
"Cc1ccc(NC(=O)c2ccc(CN3CCN(C)CC3)cc2)cc1Nc1nccc(-c2cccnc2)n1 [Imatinib, N-{5-[4-(4-methyl-piperazino-methyl)-benzoylamido]-2-methylphenyl}-4-(3-pyridyl)-2-pyrimidine-amine]",media wall:lumen ratio,"mesenteric vessels; 60 mg/kg daily gavage, 12 days, p<0.001",0.4
same,extent of ECM expansion,mesenteric vessels; [4],significantly reduced
same,media hypertrophy,mesenteric vessels; [4],significantly reduced
same,TGF-β expression,[1],further increase
same,PDGF gene expression,[2],unaffected
same,systolic blood pressure,"[3]; angiotensin II (58 ng/min) infused rats, tail-cuff, mean±SE, stated as no effect",205±10 mmHg
same,mesenteric weight,"[3]; animals receiving angiotensin II, p<0.001, significantly reduced",42 mg
